# Where two headings read alike, the source gives them in different places.
# Columns and labels:
# [1] = Solubility in PBS; type: physicochemical
# Outline: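 Steps: ultracentrifuge the peptide PBS solution, inject the supernatant on HPLC, inject a 50 μM peptide DMSO solution as reference, then calculate solubility as area ratio (PBS/DMSO) × 50 uM.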
# [2] = molecular target: T1, beta-catenin/TCF4 engagement (Homo sapiens, UniProt P35222); test: Nano-BRET target engagement assay (B-cat-Halo & TCF4-Luc in HEK293 cells); type: cell-based
# T1 construct: expressed in transfected cells; host or cells: HEK293
# T1 sequence (P35222 1-781): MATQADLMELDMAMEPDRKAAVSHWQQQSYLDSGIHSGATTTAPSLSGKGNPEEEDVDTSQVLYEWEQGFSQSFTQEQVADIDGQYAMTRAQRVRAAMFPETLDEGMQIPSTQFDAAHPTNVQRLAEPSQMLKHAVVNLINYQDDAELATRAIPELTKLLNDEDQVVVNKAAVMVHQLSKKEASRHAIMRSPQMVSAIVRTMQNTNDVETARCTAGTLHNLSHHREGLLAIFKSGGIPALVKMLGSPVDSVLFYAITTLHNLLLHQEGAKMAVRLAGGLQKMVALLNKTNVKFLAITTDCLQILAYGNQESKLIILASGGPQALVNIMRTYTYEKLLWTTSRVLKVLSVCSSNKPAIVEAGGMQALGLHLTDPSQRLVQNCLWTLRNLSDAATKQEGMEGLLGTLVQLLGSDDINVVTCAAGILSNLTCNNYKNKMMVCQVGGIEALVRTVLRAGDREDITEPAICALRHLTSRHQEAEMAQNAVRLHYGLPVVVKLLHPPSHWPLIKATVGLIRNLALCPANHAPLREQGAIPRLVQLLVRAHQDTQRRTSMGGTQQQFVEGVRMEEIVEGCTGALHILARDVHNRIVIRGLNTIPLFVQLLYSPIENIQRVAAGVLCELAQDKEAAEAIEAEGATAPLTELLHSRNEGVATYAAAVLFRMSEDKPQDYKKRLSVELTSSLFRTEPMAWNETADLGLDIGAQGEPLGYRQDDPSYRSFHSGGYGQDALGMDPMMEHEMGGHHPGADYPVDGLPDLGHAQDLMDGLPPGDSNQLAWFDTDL
# [3] = molecular target: T2, full-length beta-Catenin (Uniprot ID P35222) (Homo sapiens, UniProt P35222); test: Fluorescence polarization IC50 (beta-catenin / 5FAM-TCF4 10-53 competition); type: binding
# T2 construct: 10 nM full-length beta-Catenin (Uniprot ID P35222)
# T2 sequence (P35222 1-781): T1 sequence (P35222 1-781)
# [4] = CHI Log D procedure; type: physicochemical; conditions: for chromatographic logD: pH 7.4, CHI Log D; for CHI Log D: pH 7.4
# [5] = absolute IC50; read-out: NanoBRET Abs IC50
# [6] = fluorescence polarization, beta-catenin, read-out: FP EC50
SMILES,Solubility ([1]; Solubility (uM)) [µM],IC50 ([2]; read-out: NanoBRET Abs IC50) [nM],IC50 ([3]; read-out: beta-Catenin FP IC50) [nM],chromatographic logD [4],"IC50 [2, 5] [nM]",Solubility [1] [µM],CHI Log D [4],"IC50 [3, 6] [nM]",IC50 ([2]; read-out: NanoBRET Abs IC50; absolute IC50) [nM],"IC50 ([3]; read-out: FP EC50, fluorescence polarization, beta-catenin) [nM]"
"CC(=O)N1CCC[C@]12CC=CCCCC1(CCCC=CCCCOC(=O)N3CC[C@@](C(=O)N[C@@H](Cc4ccccc4Cl)C(=O)N[C@@H](Cc4csc5ccccc45)C(=O)N[C@@H](CCC(N)=O)C(N)=O)(C3)NC(=O)[C@H]([C@@H](C)O)NC(=O)[C@H](Cc3ccccc3)NC(=O)[C@H](C)NC(=O)[C@H](C)NC(=O)[C@H](CC(=O)O)NC(=O)[C@H](CC(=O)O)NC1=O)NC(=O)[C@H](CC1CCCCC1)NC(=O)[C@H](CC(=O)O)NC2=O (stereo partly drawn) [I-1042, Ac-PL3-Asp-Cha-B5-Asp-Asp-Ala-Ala-Phe-Thr-PyrS2-2C1F-BztA-Gln-NH2]",46,11400,5,2.35,–,–,–,–,–,–
"CC(=O)N1CCC[C@]12CC=CCCCC1(CCCC=CCCCOC(=O)N3CC[C@@](C(=O)N[C@@H](Cc4ccccc4Cl)C(=O)N[C@@H](Cc4csc5ccccc45)C(=O)N[C@@H](CCC(N)=O)C(N)=O)(C3)NC(=O)[C@H]([C@@H](C)O)NC(=O)[C@H](Cc3ccccc3)NC(=O)[C@H](C)NC(=O)[C@H](C)NC(=O)[C@H](CC(=O)O)NC(=O)[C@H](CC(=O)O)NC1=O)NC(=O)[C@H](Cc1ccccc1)NC(=O)[C@H](CC(=O)O)NC2=O (stereo partly drawn) [I-1043, Ac-PL3-Asp-Phe-B5-Asp-Asp-Ala-Ala-Phe-Thr-PyrS2-2C1F-BztA-Gln-NH2]",43,> 20000,12,2.15,–,–,–,–,–,–
"CC(=O)N1CCC[C@]12CC=CCCCC1(CCCC=CCCCOC(=O)N3CC[C@@](C(=O)N[C@@H](Cc4ccccc4Cl)C(=O)N[C@@H](Cc4csc5ccccc45)C(=O)N[C@@H](CCC(N)=O)C(N)=O)(C3)NC(=O)[C@H](CO)NC(=O)[C@H](Cc3ccccc3)NC(=O)[C@H](C)NC(=O)[C@H](C)NC(=O)[C@H](CC(=O)O)NC(=O)[C@H](CC(=O)O)NC1=O)NC(=O)[C@H](Cc1ccccc1)NC(=O)[C@H](CC(=O)O)NC2=O (stereo partly drawn) [I-1045, Ac-PL3-Asp-Phe-B5-Asp-Asp-Ala-Ala-Phe-Ser-PyrS2-2C1F-BztA-Gln-NH2]",49,–,5,2.12,23900,–,–,–,–,–
"CC(=O)N1CCC[C@]12CC=CCCCC1(CCCC=CCCCOC(=O)N3CC[C@@](C(=O)N[C@@H](Cc4ccccc4Cl)C(=O)N[C@@H](Cc4csc5ccccc45)C(=O)N[C@@H](CO)C(N)=O)(C3)NC(=O)[C@H](CC(N)=O)NC(=O)[C@H](Cc3ccccc3)NC(=O)[C@H](C)NC(=O)[C@H](C)NC(=O)[C@H](CC(=O)O)NC(=O)[C@H](CC(=O)O)NC1=O)NC(=O)[C@H](CC1CCCCC1)NC(=O)[C@H](CC(=O)O)NC2=O (stereo partly drawn) [I-1046, Ac-PL3-Asp-Cha-B5-Asp-Asp-Ala-Ala-Phe-Asn-PyrS2-2C1F-BztA-Ser-NH2]",37,–,5,2.4,20500,–,–,–,–,–
"CC(=O)N1CCC[C@]12CC=CCCCC1(CCCC=CCCCOC(=O)N3CC[C@@](C(=O)N[C@@H](Cc4ccccc4Cl)C(=O)N[C@@H](Cc4csc5ccccc45)C(=O)N[C@@H](CO)C(N)=O)(C3)NC(=O)[C@H](CC(N)=O)NC(=O)[C@H](Cc3ccccc3)NC(=O)[C@H](C)NC(=O)[C@H](C)NC(=O)[C@H](CC(=O)O)NC(=O)[C@H](CC(=O)O)NC1=O)NC(=O)[C@H](Cc1ccccc1)NC(=O)[C@H](CC(=O)O)NC2=O (stereo partly drawn) [I-1047, Ac-PL3-Asp-Phe-B5-Asp-Asp-Ala-Ala-Phe-Asn-PyrS2-2C1F-BztA-Ser-NH2]",–,–,5,2.19,28400,10,–,–,–,–
"C[C@@H]1NC(=O)[C@H](C)NC(=O)[C@H](CC(=O)O)NC(=O)[C@H](CC(=O)O)NC(=O)C2(CCCC=CCCCCCC[C@@](C)(C(=O)N[C@@H](Cc3ccsc3)C(=O)N[C@@H](Cc3csc4ccccc34)C(=O)N[C@@H](CCC(N)=O)C(N)=O)NC(=O)[C@H](CC(N)=O)NC(=O)[C@H](Cc3ccccc3)NC1=O)CCCC=CC[C@]1(CCCN1C(=O)CN=[N+]=[N-])C(=O)N[C@@H](CC(=O)O)C(=O)N[C@@H](CC(C)(C)C)C(=O)N2 (stereo partly drawn) [I-1053, AzAc-PL3-Asp-Npg-B5-Asp-Asp-Ala-Ala-Phe-Asn-S8-3Thi-BztA-Gln-NH2]",–,–,–,–,–,48,2.381,–,> 20000,11
"CC(=O)N1CCC[C@]12CC=CCCCC1(CCCC=CCCCOC(=O)N3CC[C@@](C(=O)N[C@@H](Cc4ccccc4Cl)C(=O)N[C@@H](Cc4csc5ccccc45)C(=O)N[C@@H](CCC(N)=O)C(=O)NCCCCCCN)(C3)NC(=O)[C@H]([C@@H](C)O)NC(=O)[C@H](Cc3ccccc3)NC(=O)[C@H](C)NC(=O)[C@H](C)NC(=O)[C@H](CN(CC(=O)O)CC(F)(F)F)NC(=O)[C@H](CC(=O)O)NC1=O)NC(=O)[C@H](CC(C)(C)C)NC(=O)[C@H](CC(=O)O)NC2=O (stereo partly drawn) [I-1061, Ac-PL3-Asp-Npg-B5-Asp-TfeGA-Ala-Ala-Phe-Thr-PyrS2-2C1F-BztA-Gln-6AmHex]",–,–,6,2.56,10300,10,–,–,–,–
"CC(=O)N1CCC[C@]12CC=CCCCC1(CCCC=CCCCOC(=O)N3CC[C@@](C(=O)N[C@@H](Cc4ccccc4)C(=O)N[C@@H](Cc4csc5ccccc45)C(=O)N[C@@H](CCC(N)=O)C(N)=O)(C3)NC(=O)[C@H](CC(C)C)NC(=O)[C@H](Cc3ccccc3)NC(=O)[C@H](C)NC(=O)[C@H](C)NC(=O)[C@H](CC(=O)O)NC(=O)[C@H](CC(=O)O)NC1=O)NC(=O)[C@H](CC(C)(C)C)NC(=O)[C@H](CC(=O)O)NC2=O (stereo partly drawn) [I-1072, Ac-PL3-Asp-Npg-B5-Asp-Asp-Ala-Ala-Phe-Leu-PyrS2-Phe-BztA-Gln-NH2]",35,10500,10,1.39,–,–,–,723,–,–

# Further lines, with some results ahead:
Solubility ([1]; Solubility (uM)) [µM],IC50 ([2]; read-out: NanoBRET Abs IC50) [nM],IC50 ([3]; read-out: beta-Catenin FP IC50) [nM],chromatographic logD [4],"IC50 [2, 5] [nM]",Solubility [1] [µM],CHI Log D [4],"IC50 [3, 6] [nM]",SMILES,IC50 ([2]; read-out: NanoBRET Abs IC50; absolute IC50) [nM],"IC50 ([3]; read-out: FP EC50, fluorescence polarization, beta-catenin) [nM]"
–,6300,22,–,–,44,2.8,22,"CC(=O)N1CCC[C@]12CC=CCCCC1(CCCC=CCCCCCC[C@@](C)(C(=O)N[C@@H](Cc3ccccc3Cl)C(=O)N[C@@H](Cc3csc4ccccc34)C(=O)N[C@@H](CCC(N)=O)C(N)=O)NC(=O)[C@H]([C@@H](C)O)NC(=O)[C@H](Cc3ccccc3)NC(=O)[C@H](C)NC(=O)[C@H](C)NC(=O)[C@H](CCC(=O)O)NC(=O)[C@H](CC(=O)O)NC1=O)NC(=O)[C@H](CC(C)(C)C)NC(=O)[C@H](CC(=O)O)NC2=O (stereo partly drawn) [I-1088, Ac-PL3-Asp-Npg-B5-Asp-Glu-Ala-Ala-Phe-Thr-S8-2ClF-BztA-Gln-NH2]",–,–
–,8900,12,–,–,43,2.826,12,"CC(=O)N1CCC[C@]12CC=CCCCC1(CCCC=CCCCCCC[C@@](C)(C(=O)N[C@@H](Cc3ccccc3Cl)C(=O)N[C@@H](Cc3csc4ccccc34)C(=O)N[C@@H](CCC(N)=O)C(N)=O)NC(=O)[C@H]([C@@H](C)O)NC(=O)[C@H](Cc3ccccc3)NC(=O)[C@H](C)NC(=O)[C@H](C)NC(=O)[C@H](CCC(=O)O)NC(=O)[C@H](CC(=O)O)NC1=O)NC(=O)[C@H](CC(C)(C)C)NC(=O)[C@H](CC(=O)O)NC2=O (stereo partly drawn) [I-1089, Ac-PL3-Asp-Npg-B5-Asp-Glu-Ala-Ala-Phe-Thr-S8-2C1F-BztA-Gln-NH2]",–,–
39,6100,18,2.98,–,–,–,–,"CC(=O)N1CCC[C@]12CC=CCCCC1(CCCC=CCCCCCC[C@@](C)(C(=O)N[C@@H](Cc3ccccc3Cl)C(=O)N[C@@H](Cc3csc4ccccc34)C(=O)N[C@H](C(N)=O)[C@@H](C)O)NC(=O)[C@H]([C@@H](C)O)NC(=O)[C@H](Cc3ccccc3)NC(=O)[C@H](C)NC(=O)[C@H](C)NC(=O)[C@H](CC(=O)O)NC(=O)[C@H](CC(=O)O)NC1=O)NC(=O)[C@H](CC(C)(C)C)NC(=O)[C@H](CC(=O)O)NC2=O (stereo partly drawn) [I-1090, Ac-PL3-Asp-Npg-B5-Asp-Asp-Ala-Ala-Phe-Thr-S8-2C1F-BztA-Thr-NH2]",–,–
33,11400,27,3.04,–,–,–,–,"CC(=O)N1CCC[C@]12CC=CCCCC1(CCCC=CCCCCCC[C@@](C)(C(=O)N[C@@H](Cc3ccccc3Cl)C(=O)N[C@@H](Cc3csc4ccccc34)C(=O)N[C@H](C(N)=O)[C@@H](C)O)NC(=O)[C@H]([C@@H](C)O)NC(=O)[C@H](Cc3ccccc3)NC(=O)[C@H](C)NC(=O)[C@H](C)NC(=O)[C@H](CCC(=O)O)NC(=O)[C@H](CC(=O)O)NC1=O)NC(=O)[C@H](CC(C)(C)C)NC(=O)[C@H](CC(=O)O)NC2=O (stereo partly drawn) [I-1091, Ac-PL3-Asp-Npg-B5-Asp-Glu-Ala-Ala-Phe-Thr-S8-2C1F-BztA-Thr-NH2]",–,–
